Test results reported in patent publication US10791740B2, “Enhancement of antibiotic efficacy” (priority 2014, dated 2020).
≈ marks a conversion by molar mass, not a printed value. Like-named read-outs stand apart in the source and are kept apart here.

How the values were obtained:
[1] = test system: tetracycline resistant E. coli; format: cell-based, Escherichia coli; details: for MIC: single agent, Table 5; for MIC (μM) of amphiphile alone: Tables 6 and 7
Description: (§1) Certain aspects are drawn to a method for increasing or enhancing the antimicrobial activity of an antimicrobial agent. As used herein, the “antimicrobial activity” of an antimicrobial agent is defined as the property of a substance to inhibit the growth and reproduction of a microbial organism or to kill it. Common terms generally applied to bacteria are bacteriostatic (stops growth) and bactericidal (kills bacteria). Depending on the concentrations applied, microbial growth can be slowed or stopped in comparison to concurrent experiments conducted in the absence of an antimicrobial agent. Depending on the concentrations applied, additional microbe death can occur in comparison to concurrent experiments conducted in the absence of an antimicrobial agent. […] The MIC is the lowest concentration of any agent having antimicrobial activity that inhibits the growth of a microorganism as judged by visual inspection. MIC can be determined by inoculating media with the organism and adding the antimicrobial agent diluted successively in half.
(§2) Among the organisms studied are several strains of the bacterium E. coli.
N,N′-Dibenzyl-4,13-diaza-18-crown-6 is referred to in the table as dibenzyldiaza-18-crown-6.
(§3) Minimal Inhibitory Concentration (MIC) Procedure. […] Prepare initial concentration of all the compounds required. • 5. […] Vortex each test tube for 2-3 seconds. • 11.

[2] = test system: E. coli; details: Journal of the American Chemical Society 2002, 124, 9022-3, cited from earlier work
[3] = test system: E. coli; experiment: MIC determination, E. coli (Table 1); format: cell-based, Escherichia coli; details: single agent
Description: as §1, §2, §3

[4] = test system: DH5α E. coli; experiment: Combination of lariat ether and antibiotic against DH5α E. coli; details: 0.4 vol-% DMSO
[5] = test system: K-12 E. coli; experiment: Combination of amphiphile and antibiotic against K-12 E. coli
[6] = test system: K-12 E. coli; experiment: MIC of single agents against K-12 E. coli
[7] = test system: tetracycline resistant E. coli
[8] = test system: S. cerevisiae; experiment: MIC determination, S. cerevisiae (Table 1); format: cell-based, Saccharomyces cerevisiae; details: single agent
Description: (§4) Certain aspects are drawn to a method for increasing or enhancing the antimicrobial activity of an antimicrobial agent. As used herein, the “antimicrobial activity” of an antimicrobial agent is defined as the property of a substance to inhibit the growth and reproduction of a microbial organism or to kill it. Common terms generally applied to bacteria are bacteriostatic (stops growth) and bactericidal (kills bacteria). Depending on the concentrations applied, microbial growth can be slowed or stopped in comparison to concurrent experiments conducted in the absence of an antimicrobial agent. Depending on the concentrations applied, additional microbe death can occur in comparison to concurrent experiments conducted in the absence of an antimicrobial agent. The results of minimum inhibitory concentration (MIC) evaluations and growth curves are presented herein and the conditions are specified. The MIC is the lowest concentration of any agent having antimicrobial activity that inhibits the growth of a microorganism as judged by visual inspection. MIC can be determined by inoculating media with the organism and adding the antimicrobial agent diluted successively in half. […] Reference herein to increasing or enhancing activity, efficacy, potency, and the like are used interchangeably to mean that when the synthetic amphiphile is present, the ability of the antimicrobial agent to inhibit the growth of or to kill an organism will be manifested at a concentration lower than would be required to achieve the same results in the absence of said synthetic amphiphile.
(§5) Among the organisms studied are several strains of the bacterium E. coli. […] Experiments were conducted to determine the MIC values for the synthetic amphiphiles known as lariat ethers according to the procedures described in Antimicrobial M07-A9: Methods for Dilution Antimicrobial Susceptibility Tests for Bacteria that Grow Aerobically; Clinical and Laboratory Standards Institute, 2012; Vol. 32, 67 pp. MIC values so determined for several lariat ethers and for several antibiotics are shown in Table 1.

[9] = test system: HEK-293 cells; experiment: MTT assay of toxicity to HEK-293 cells
Description: The toxicity of C6. C8, C10. C11 and C14 lariat ethers to HEK-293 cells was determined by using an MTT assay. […] The abscissa is a logarithmic scale for the concentrations ranging from 1 μM to 1000 μM (1 mM) used in the experiment. The ordinate represents percent survival of HEK-293 cells.
Growth medium containing DMEM with high glucose (ATCC). 10% fetal bovine serum (FBS: Sigma-Aldrich) and 10 μg/mL of blasticidin (Thermo-Fischer) was prepared. HEK 293 cells were thawed out from cryo-preserved samples in 10 mL growth media, centrifuged at 500 rpm for 10 minutes to remove preservative. The cells were then resuspended in fresh growth medium and cultured using a T-75 flask (Thermo-Fischer) at 37° C. and 5% CO2. Cells were monitored for confluence and growth medium was replaced every 48 h, until cells were placed onto a 96-well plate for toxicity studies.
After reaching 80-90% confluence, cells were trypsinized and suspended in media containing DMEM and 10% FBS (no antibiotics). The cells were counted on a hemacytometer and plated at a density of 20,000 cells per well in a 96-well plate and grown for 24 hours to reach 60-70% confluence. DMSO stocks of C6, C8, C10, C11 and C14 diaza-18-crown-6 lariat ethers were prepared at […] and diluted 1:10 to get working concentrations of 20 mM, 2 mM, and 0.2 mM. Each stock was further diluted […] into DMEM supplemented with 10% FBS to get final concentrations of 1 mM, 0.1 mM, 0.01 mM (10 μM) and 0.001 mM (1 μM). The original media was then removed from the cells and replaced with 200 μL media containing the desired concentration of compound. Three wells were used for each concentration providing experimental triplicates. […] The absorbance was measured at 570 nm and nonspecific absorbance was corrected at 650 nm, using SpectraMax340 micro plate reader.
The experiment was performed in triplicate and the average of percent survival of three experiments was determined. […] The lethal dose 50 (LD50) for each compound was calculated by using the equation for a logarithmic regression curve.

[10] = test system: DH5α E. coli; experiment: MIC of single agents against DH5α E. coli; format: cell-based, Escherichia coli; details: for MIC to DH5α E. coli: single agent, values of the running text
Description: as §1, §2, §3

[11] = test system: B. stubtilis; experiment: MIC determination, B. subtilis (Table 1); format: cell-based, Bacillus subtilis; details: single agent
Description: as §4, §5

[12] = test system: DH5α E. coli; experiment: Inhibitory concentration (IC50) to DH5α E. coli cells (FIG. 4); format: cell-based, Escherichia coli
Description: Two commonly used abbreviations are LD50 and IC50. The former is the concentration of an agent that comprises a lethal dose to 50% of the organism under study. The latter is the concentration of agent that inhibits growth of 50% of the organism under study. […] The abscissa represents the number of (CH2) groups in spacer chains. The ordinate is logarithmic and reflects the concentrations (in μM) of the various lariat ethers used.

## c1ccc(CN2CCOCCOCCN(CCCCCCCCCCCCN3CCOCCOCCN(CCCCCCCCCCCCN4CCOCCOCCN(Cc5ccccc5)CCOCCOCC4)CCOCCOCC3)CCOCCOCC2)cc1 [C12 hydraphile]
[1]
  MIC: 5 ± 0.5 µM (≈ 6.5 µg/mL)
[1]; tetracycline resistant E. coli
  MIC (μM) of amphiphile alone: 5 µM
[2]; listed as C12 benzyl hydraphile
  toxicity to E. coli: killed E. coli
[2]; listed as benzyl C12 hydraphile
  toxicity to E. coli: killed the bacteria

## c1ccc(CN2CCOCCOCCN(CCCCCCCCCCCCCCN3CCOCCOCCN(CCCCCCCCCCCCCCN4CCOCCOCCN(Cc5ccccc5)CCOCCOCC4)CCOCCOCC3)CCOCCOCC2)cc1 [C14 hydraphile]
[1]
  MIC: 2 ± 0.125 µM (≈ 2.71 µg/mL)
[1]; tetracycline resistant E. coli
  MIC (μM) of amphiphile alone: 2 µM

## CC[C@H]1OC(=O)[C@H](C)[C@@H](O[C@H]2C[C@@](C)(OC)[C@@H](O)[C@H](C)O2)[C@H](C)[C@@H](O[C@@H]2O[C@H](C)C[C@H](N(C)C)[C@H]2O)[C@](C)(O)C[C@@H](C)C(=O)[C@H](C)[C@@H](O)[C@]1(C)O [erythromycin, reference compound]
[3]; Escherichia coli
  MIC: > 400 µM

## CO[C@H]1/C=C/O[C@@]2(C)Oc3c(C)c(O)c4c(O)c(c(/C=N/N5CCN(C)CC5)c(O)c4c3C2=O)NC(=O)/C(C)=C\C=C\[C@H](C)[C@H](O)[C@@H](C)[C@@H](O)[C@@H](C)[C@H](OC(C)=O)[C@@H]1C [rifampicin, reference compound]
[4]; rifampicin with 8 μM n-C11 lariat ether
  Antibiotic Used (μM) in combination: 15 µM
[4]; rifampicin with 12 μM n-C11 lariat ether
  Antibiotic Used (μM) in combination: 6 µM
[4]; rifampicin with 16 μM n-C11 lariat ether
  Antibiotic Used (μM) in combination: 6 µM
[4]; rifampicin with 18 μM n-C11 lariat ether
  Antibiotic Used (μM) in combination: 3 µM
[5]; Rifampicin with 6 μM C11 lariat ether
  Antibiotic Used (μM) in combination: 10 µM
[6]
  MIC (μM) of antibiotic alone: 20 µM

## CN(C)[C@@H]1C(O)=C(C(N)=O)C(=O)[C@@]2(O)C(O)=C3C(=O)c4c(O)cccc4[C@@](C)(O)[C@H]3C[C@@H]12 [tetracycline, reference compound]
[4]; tetracycline with 4 μM n-C11 lariat ether
  Antibiotic Used (μM) in combination: 3 µM
[4]; tetracycline with 12 μM n-C11 lariat ether
  Antibiotic Used (μM) in combination: 1 µM
[4]; tetracycline with 16 μM n-C11 lariat ether
  Antibiotic Used (μM) in combination: 0.25 µM
[4]; tetracycline with 18 μM n-C11 lariat ether
  Antibiotic Used (μM) in combination: 1.5 µM
[5]; Tetracycline with 6 μM C11 lariat ether
  Antibiotic Used (μM) in combination: 2.5 µM
[6]
  MIC (μM) of antibiotic alone: 6 µM
[1]; tetracycline resistant E. coli
  MIC (μM) of antibiotic alone: ~900 µM
[7]; Tetracycline with 8 μM C11 lariat ether
  Antibiotic Used (μM) in combination: 175 µM
[7]; Tetracycline with 12 μM C11 lariat ether
  Antibiotic Used (μM) in combination: 87 µM
[7]; Tetracycline with 16 μM C11 lariat ether
  Antibiotic Used (μM) in combination: 87 µM
[7]; Tetracycline with 18 μM C11 lariat ether
  Antibiotic Used (μM) in combination: 87 µM

## NC[C@H]1O[C@H](O[C@H]2[C@H](O)[C@@H](O[C@H]3O[C@H](CO)[C@@H](O)[C@H](N)[C@H]3O)[C@H](N)C[C@@H]2N)[C@H](N)C[C@@H]1O [tobramycin, reference compound]
[3]; Escherichia coli
  MIC: 15 µM (≈ 7.01 µg/mL)

## N,N′-di-n-decyl-4,13-diaza-18-crown-6 [C10 lariat ether]
[8]
  MIC (μM) S. cerevisiae: 2.8 µM
[6]
  MIC (μM) of amphiphile alone: 12 µM
[9]; C6 to C14 lariat ethers compared
  toxicity to HEK-293, rank among lariat ethers: highest toxicity
[1]
  MIC: 16 µM
[1]; tetracycline resistant E. coli
  MIC (μM) of amphiphile alone: 16 µM
[10]
  MIC to DH5α E. coli: 12 µM
[3]
  MIC: 11 µM
[11]
  MIC (μM) B. stubtilis: 2.8 µM

## N,N′-di-n-dodecyl-4,13-diaza-18-crown-6 [C12 lariat ether]
[8]
  MIC (μM) S. cerevisiae: 2.5 µM
[6]
  MIC (μM) of amphiphile alone: >512 µM
[1]; tetracycline resistant E. coli
  MIC (μM) of amphiphile alone: >512 µM
[10]; previous studies
  toxicity to DH5α E. coli cells: did not show toxicity
[3]
  MIC: >300 µM
[11]
  MIC (μM) B. stubtilis: 2.5 µM

## N,N′-di-n-octyl-4,13-diaza-18-crown-6 [C8 lariat ether]
[8]
  MIC (μM) S. cerevisiae: 25 µM
[12]; DH5α E. coli, FIG. 4
  IC50: 150 µM
[6]
  MIC (μM) of amphiphile alone: 300 µM
[9]
  LD50 to HEK-293: 33 µM
[1]
  MIC: 120 µM
[1]; tetracycline resistant E. coli
  MIC (μM) of amphiphile alone: 120 µM
[10]; DH5α E. coli, Tables 2 and 3
  MIC (μM) of lariat ether alone: >120 µM
[10]
  MIC to DH5α E. coli: > 240 µM
[10]; listed as C8 Lariat
  MIC to DH5α E. coli: 120 µM
[3]
  MIC: 120 µM
[11]
  MIC (μM) B. stubtilis: 105 µM

## N,N′-di-n-tetradecyl-4,13-diaza-18-crown-6 [C14 lariat ether]
[8]
  MIC (μM) S. cerevisiae: >300 µM
[12]; at 180 μM
  activity against E. coli: inactive
[3]
  MIC: >300 µM
[11]
  MIC (μM) B. stubtilis: >300 µM
